The text below walks through data of patent publication US20260124181A1, “AGENT FOR REDUCING BLOOD MYOSTATIN LEVEL” (KOWA COMPANY, LTD., priority 2022, published 2026).

In the experiment the test system is blood myostatin. Nature of the experiment: Effect of compound A on blood myostatin in NAFLD patients, oral administration for 72 weeks versus placebo. The experiment is classed as in vivo, human. Particulars: 0.4 mg per day oral (0.2-mg tablet twice a day). Here is the method: An effect on blood myostatin at the time of the oral administration of 0.4 mg per day of the compound A (a 0.2-mg tablet of the compound A was administered twice a day at the time of fasting) to a patient of a nonalcoholic fatty liver disease (NAFLD) for 72 weeks was investigated by comparison to the administration of a placebo. […] It was clear from FIG. 1 that the administration of the compound A reduced the fasting blood myostatin concentration at 12 weeks and 72 weeks from the administration in a stepwise manner as compared to the placebo administration.

SMILES strings stand for the structures.

`CC[C@@H](Oc1cccc(CN(CCCOc2ccc(OC)cc2)c2nc3ccccc3o2)c1)C(=O)O` [Compound A, (R)-2-[3-[[N-(benzoxazol-2-yl)-N-3-(4-methoxyphenoxy)propyl]aminomethyl]phenoxy]butyric acid]: the “fasting blood myostatin concentration, change from baseline as compared to placebo” value is “reduced” (12 weeks after start of administration) and “reduced” (72 weeks after start of administration).
